Laboratory results reported in US11230541B2, “Heterocyclic compound” (Takeda Pharmaceutical Company Limited, priority 2017, dated 2022).

Target: T1, NMDA receptor composed of four subunits including 2 sets of heterodimers of NR1 and NR2B (Homo sapiens, UniProt Q13224)
T1 construct: host or cells: HEK293 (tetracycline-induced expression)
Assay: NR2B Ca2+ influx assay (FLIPR, Fluo-4) in HEK293 cells expressing human GRIN1 and GRIN2B
Assay type: cell-based
Settings: HEK293, 10 μM final compound concentration, glutamic acid/glycine-induced Ca2+ influx, read-out: inhibitory rate (10 μM compound concentration)
In short: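 Tetracycline-induced (2 h) HEK293 cells expressing human GRIN1/GRIN2B, Fluo-4-loaded, were preincubated 15 min at room temperature with compound at 10 μM final. FLIPR recorded Ca2+ influx every 3 s for 5 min after glutamate/glycine addition (30 μM in added buffer); inhibition from cumulative fluorescence relative to agonist-free wells.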

T1 sequence (Q13224 27-1484, other chains not shown): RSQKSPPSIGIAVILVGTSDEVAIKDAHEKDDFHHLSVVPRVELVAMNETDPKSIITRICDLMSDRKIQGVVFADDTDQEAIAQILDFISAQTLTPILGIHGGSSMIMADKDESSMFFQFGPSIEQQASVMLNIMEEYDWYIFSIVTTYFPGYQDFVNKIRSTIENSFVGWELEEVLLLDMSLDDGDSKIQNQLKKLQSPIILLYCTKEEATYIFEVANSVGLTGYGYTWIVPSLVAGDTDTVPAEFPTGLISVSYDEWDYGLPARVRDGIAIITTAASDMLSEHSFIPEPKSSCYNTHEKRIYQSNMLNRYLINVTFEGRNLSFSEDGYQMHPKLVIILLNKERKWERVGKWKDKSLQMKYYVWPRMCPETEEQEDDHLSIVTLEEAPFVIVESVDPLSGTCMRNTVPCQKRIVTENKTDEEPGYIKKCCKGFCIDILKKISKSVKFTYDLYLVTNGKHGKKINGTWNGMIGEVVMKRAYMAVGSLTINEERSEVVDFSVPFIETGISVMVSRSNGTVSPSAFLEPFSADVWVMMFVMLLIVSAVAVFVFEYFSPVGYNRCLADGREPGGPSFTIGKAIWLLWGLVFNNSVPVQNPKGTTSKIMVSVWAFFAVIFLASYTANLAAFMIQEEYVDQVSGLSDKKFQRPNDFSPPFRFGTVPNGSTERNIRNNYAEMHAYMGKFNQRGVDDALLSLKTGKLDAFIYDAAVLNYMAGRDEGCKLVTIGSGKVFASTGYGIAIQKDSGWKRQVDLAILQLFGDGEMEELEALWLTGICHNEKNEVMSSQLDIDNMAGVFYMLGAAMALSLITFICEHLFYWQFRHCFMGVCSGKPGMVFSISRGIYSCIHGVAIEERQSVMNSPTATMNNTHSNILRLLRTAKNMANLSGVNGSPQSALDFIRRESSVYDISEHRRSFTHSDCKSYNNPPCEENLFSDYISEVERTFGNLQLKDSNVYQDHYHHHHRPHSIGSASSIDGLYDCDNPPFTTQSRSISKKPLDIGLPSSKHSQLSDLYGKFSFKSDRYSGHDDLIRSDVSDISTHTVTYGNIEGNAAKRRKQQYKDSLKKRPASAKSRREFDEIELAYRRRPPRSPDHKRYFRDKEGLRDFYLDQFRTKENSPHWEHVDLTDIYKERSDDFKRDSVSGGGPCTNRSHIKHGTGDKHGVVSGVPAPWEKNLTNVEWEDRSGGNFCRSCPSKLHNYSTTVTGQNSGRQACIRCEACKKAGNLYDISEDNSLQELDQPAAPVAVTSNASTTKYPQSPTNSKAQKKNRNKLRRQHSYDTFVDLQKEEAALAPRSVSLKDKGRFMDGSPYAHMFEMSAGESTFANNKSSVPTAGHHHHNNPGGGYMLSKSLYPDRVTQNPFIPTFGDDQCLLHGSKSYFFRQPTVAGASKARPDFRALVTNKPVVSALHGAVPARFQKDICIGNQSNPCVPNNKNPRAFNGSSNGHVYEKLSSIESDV

SMILES	inhibition at 10 µM [%]
COc1ccc2ncn(C)c2c1CNC(=O)c1ccc(C(F)F)cc1 [Example 123, 4-(difluoromethyl)-N-((6-methoxy-1-methyl-1H-benzimidazol-7-yl)methyl)benzamide]	88
Cc1cc(C(=O)NCc2c(C3CC3)ccc3[nH]ncc23)cc(F)c1F [Example 76, N-((5-cyclopropyl-1H-indazol-4-yl)methyl)-3,4-difluoro-5-methyl-benzamide]	93
COc1ccc2nc(C)n(C)c2c1CNC(=O)c1cc(F)c(OC)c(F)c1 [Example 214, 3,5-difluoro-4-methoxy-N-((6-methoxy-1,2-dimethyl-lH-benzimidazol-7-yl)methyl)benzamide]	86
CCOc1ccc2ncn(C)c2c1CNC(=O)c1ccc(C(F)F)cc1 [Example 140, 4-(difluoromethyl)-N-((6-ethoxy-1-methyl-1H-benzimidazol-7-yl)methyl)benzamide]	90
Cc1ccc2ncn(C)c2c1CNC(=O)c1ccc(OC(F)(F)F)nc1 [Example 138, N-((1,6-dimethyl-1H-benzimidazol-7-yl)methyl)-6-(trifluoromethoxy)-nicotinamide]	88
COc1ccc2nc(C)n(C)c2c1CNC(=O)c1ccc(C(F)(F)F)s1 [Example 231, N-((6-methoxy-1,2-dimethyl-lH-benzimidazol-7-yl)methyl)-5-(trifluoromethyl)-thiophene-2-carboxamide]	73
COc1ccc2nc(C)n(C)c2c1CNC(=O)c1ccc(OC(F)F)c(Cl)c1 [Example 244, 3-chloro-4-(difluoromethoxy)-N-((6-methoxy-1,2-dimethyl-lH-benzimidazol-7-yl)methyl)benzamide]	87
O=C(NCc1c(C2CC2)ccc2[nH]ncc12)c1ccc(C(F)(F)F)c(F)c1 [Example 92, N-((5-cyclopropyl-1H-indazol-4-yl)methyl)-3-fluoro-4-(trifluoro-methyl)benzamide]	93
COc1ccc(C(=O)NCc2c(OC)ccc3ncn(C)c23)s1 [Example 48, 5-methoxy-N-((6-methoxy-1-methyl-1H-benzimidazol-7-yl)methyl)thiophene-2-carboxamide]	84
O=C(NCc1cccc2[nH]ncc12)c1ccc(Cl)c(F)c1 [Example 187, 4-chloro-3-fluoro-N-(1H-indazol-4-ylmethyl)benzamide]	74
COc1ccc2ncn(C)c2c1CNC(=O)c1cc(C)cs1 [Example 43, N-((6-methoxy-1-methyl-1H-benzimidazol-7-yl)-methyl)-4-methylthiophene-2-carboxamide]	61
COc1ccc(C(=O)NCc2c(OC)ccc3ncn(C)c23)cc1Cl [Example 34, 3-chloro-4-methoxy-N-((6-methoxy-1-methyl-1H-benzimidazol-7-yl)methyl)benzamide]	89
COc1ccc2[nH]nnc2c1CNC(=O)c1cc(F)c(OC)c(F)c1 [Example 207, 3,5-difluoro-4-methoxy-N-((5-methoxy-1H-benzotriazol-4-yl)methyl)benzamide]	98
COc1ccc2ncn(C)c2c1CNC(=O)c1ccc(C)c(F)c1 [Example 14, 3-fluoro-N-((6-methoxy-1-methyl-1H-benzimidazol-7-yl)methyl)-4-methylbenzamide]	92
O=C(NCc1c(C2CC2)ccc2[nH]ncc12)c1cc(Cl)c(Cl)s1 [Example 83, 4,5-dichloro-N-((5-cyclopropyl-1H-indazol-4-yl)methyl)thiophene-2-carboxamide]	93
COc1cc(C(=O)NCc2c(C3CC3)ccc3[nH]ncc23)ccc1F [Example 72, N-((5-cyclopropyl-1H-indazol-4-yl)methyl)-4-fluoro-3-methoxy-benzamide]	89

SMILES	inhibition at 10 µM [%]
O=C(Cc1cccs1)NCc1c(C2CC2)ccc2[nH]ncc12 [Example 65, N-((5-cyclopropyl-1H-indazol-4-yl)methyl)-2-(2-thienyl)acetamide]	90
CCc1ccc2ncn(C)c2c1CNC(=O)c1cnc(OC)c(F)c1 [Example 22, N-((6-ethyl-1-methyl-1H-benzimidazol-7-yl)-methyl)-5-fluoro-6-methoxynicotinamide]	90
COc1ccc(C(=O)NCc2c(C)ccc3ncn(C)c23)cc1F [Example 129, N-((1,6-dimethyl-1H-benzimidazol-7-yl)methyl)-3-fluoro-4-methoxybenzamide]	88
COc1ccc2ncn(C)c2c1CNC(=O)Nc1ccc(C(F)(F)F)cc1 [Example 262, 1-((6-methoxy-1-methyl-1H-benzimidazol-7-yl)methyl)-3-(4-(trifluoromethyl)-phenyl)urea]	91
Cc1ccc2[nH]nnc2c1CNC(=O)c1ccc(OC(F)(F)F)cc1 [Example 194, N-((5-methyl-1H-benzotriazol-4-yl)methyl)-4-(trifluoromethoxy)-benzamide]	97
O=C(NCc1cccc2[nH]ncc12)c1ccc(OC(F)(F)F)nc1 [Example 170, N-(1H-indazol-4-ylmethyl)-6-(trifluoromethoxy)-nicotinamide]	76
CCc1ccc2ncn(C)c2c1CNC(=O)c1csc(Cl)c1 [Example 147, 5-chloro-N-((6-ethyl-1-methyl-1H-benzimidazol-7-yl)methyl)thiophene-3-carboxamide]	92
COc1ccc2ncn(C)c2c1CNC(=O)c1ccc(C(F)F)c(F)c1 [Example 124, 4-(difluoromethyl)-3-fluoro-N-((6-methoxy-1-methyl-1H-benzimidazol-7-yl)methyl)benzamide]	90
COc1ccc2ncn(C)c2c1CNC(=O)c1ccc(C(F)F)c(Cl)c1 [Example 112, 3-chloro-4-(difluoromethyl)-N-((6-methoxy-1-methyl-1H-benzimidazol-7-yl)methyl)benzamide]	92
COCc1ccc2ncn(C)c2c1CNC(=O)c1ccc(C(F)(F)F)cc1 [Example 280, N-{[6-(methoxymethyl)-1-methyl-1H-benzimidazol-7-yl]methyl}-4-(trifluoromethyl)-benzamide]	75
COc1ccc2nc(C)n(C)c2c1CNC(=O)c1ccc(OC(F)(F)F)nc1 [Example 233, N-((6-methoxy-1,2-dimethyl-lH-benzimidazol-7-yl)methyl)-6-(trifluoromethoxy)-nicotinamide]	72
COc1ccc2ncn(C)c2c1CNC(=O)c1ccc(C(F)(F)F)c(Cl)c1 [Example 51, 3-chloro-N-((6-methoxy-1-methyl-1H-benzimidazol-7-yl)-methyl)-4-(trifluoro-methyl)benzamide]	90
COc1ccc2ncn(C)c2c1CNC(=O)c1csc(C2CC2)c1 [Example 115, 5-cyclopropyl-N-((6-methoxy-1-methyl-1H-benzimidazol-7-yl)methyl)thiophene-3-carboxamide]	93
COCc1ccc2ncn(C)c2c1CNC(=O)c1csc(C(F)(F)F)c1 [Example 282, N-{[6-(methoxymethyl)-1-methyl-lH-benzimidazol-7-yl]methyl)-5-(trifluoromethyl)-thiophene-3-carboxamide]	76
Cc1ccc2[nH]nnc2c1CNC(=O)c1ccc(C(F)(F)F)c(F)c1 [Example 199, 3-fluoro-N-((5-methyl-1H-benzotriazol-4-yl)methyl)-4-(trifluoromethyl)-benzamide]	92
